Where “and” joins values, the source holds several entries; their conditions need not be identical. Equal values may be shown once. Marks after values point to notes of the source that are not given here.
Experiments:
[1] = system: Enterobacteriaceae; assay: Broth microdilution MIC (Example 11), group statement; type: cell-based; conditions: ATCC QC E. coli, ESBL-, KPC- and NDM-1-positive isolates
[2] = system: S. aureus ATCC 29213; assay: Broth microdilution MIC, QC organism (Example 13, Table 110); type: cell-based, Staphylococcus aureus
From the text: MECs were only reported where observed.

[3] = Clinical chemistry after face-mask inhalation in beagle dogs; type: in vivo; conditions: times not given
Procedure: The objective of the study is to determine the maximum tolerated dose (MTD) or maximum feasible dose (MFD) of inhaled bismuth ethanedithiol (BisEDT) after face-mask inhalation exposure (up to 60 min of exposure) in male and female beagle dogs. Animals will be monitored for up to 14 days following the first day of exposure and blood will be collected at predetermined timepoints to analyze the pharmacokinetics of BisEDT. In addition, a coagulation panel will be conducted prior to necropsy. At the conclusion of the study animals will be euthanized and undergo necropsy during which the respiratory tract will be harvested for bioanalytical and histopathological analysis. Results obtained will inform a follow up repeated dose GLP study. This test article is currently being developed as a novel formulation of a broad spectrum antimicrobial/antibiofilm agent, indicated for the treatment of lung infections in patients with cystic fibrosis.
Once adequately conditioned to the restraint device and face-masks, the animals are individually exposed to the test article aerosols. Animals receive a single face-mask inhalation exposure in a ramp study design to test article aerosols for up to 60 min. Animal observations during and post exposure determine the tolerance of inhaled BisEDT aerosols.
Group 1 (vehicle) are exposed to a vehicle atmosphere for 30 minutes. Group 2 (50 μg/kg) are exposed to BisEDT for 30 minutes. Target concentrations and exposure durations for Groups 3-5 are based on the presence of any toxicity via clinical observations or gross necropsy findings. In each of Groups 3-5, if no adverse clinical signs of toxicity are observed, the next groups' exposure will be conducted at a higher target dose. If adverse clinical signs of toxicity are observed, the next groups' exposure will be conducted at a lower target dose. This approach is repeated for all BisEDT doses. The final documented exposure duration is the maximum tolerated dose or the maximum feasible dose.
Blood are collected for pharmacokinetic (PK) analysis prior to exposure, then at 4 hr (±5 min) post exposure, and again on Day 1, Day 2, Day 7 (pre- and 4 hr (±5 min)-post exposure), Day 8, Day 9, Day 10, Day 11, Day 12, Day 13, and Day 14. A total of 0.25 mL is collected at each timepoint. No PK blood is collected from the vehicle control (Group 1) animals; only animals exposed to BisEDT have blood collected for PK analysis. Collected samples are flash frozen without processing for shipment to Medpace for bioanalytical analysis. Additional blood is collected from all animals in all groups for hematology (1 mL) and clinical chemistry (1 mL) at baseline, Day 7 (pre-exposure), and again at euthanasia. Blood (2-2 mL) is collected from all animals at necropsy for coagulation analysis (d-Dimer, fibrinogen, PT, and PTT).
For clinical chemistry analyses, whole blood (1 mL) is placed into serum separator or clot tube and […] by centrifugation at a minimum of 1300 g at 2 to 8° C. for 10 (±1) min. Plasma samples are stored at −70 to −90° C. until analysis.
Clinical chemistry samples are analyzed on a Hitachi Modular Analytics Clinical Chemistry System (Roche Diagnostics, Indianapolis, IN).

[4] = Grp 2, dogs 2001 male, 2002 female, 3 samplings each
[5] = Grp 3, dogs 3001 male, 3002 female, 3 samplings each
[6] = Grp 4, dogs 4001 male, 4004 female (3 samplings each), 4002 female, 4003 male (2 samplings each)
[7] = Grp 4 Avg (stands after dogs 4001, 4004), 3 samplings

SMILES: CC(S)C(C)S.[Bi] (stereo not drawn) [BisBDT, bismuth-2,3-butanedithiol]
- MIC values (range across isolates) [1]: 0.5 to 2 µg/mL
- MIC 24 hr [2]: 1^a

SMILES: C1C[S][Bi]([S]CC[S][Bi]2[S]CC[S]2)[S]1 [BisEDT, bismuth-1,2-ethanedithiol]
- AGR [3, 4]: 1.9 and 2.0 and 1.8 and 1.7 and 2.3
- ALB [3, 4]: 3.3 g/dL and 3.4 g/dL and 3.5 g/dL and 3.6 g/dL and 3.7 g/dL
- ALT [3, 4]: 22 IU/L and 18 IU/L and 29 IU/L and 27 IU/L
- AST [3, 4]: 48 IU/L and 36 IU/L and 35 IU/L and 41 IU/L and 38 IU/L
- BUN [3, 4]: 12 mg/dL and 16 mg/dL and 15 mg/dL and 13 mg/dL and 14 mg/dL
- CA2 [3, 4]: 10.9 mg/dL and 10.8 mg/dL and 11.0 mg/dL and 10.6 mg/dL
- CHOL [3, 4]: 168 mg/dL and 167 mg/dL and 152 mg/dL and 138 mg/dL and 123 mg/dL and 114 mg/dL
- CREA [3, 4]: 0.7 mg/dL and 0.6 mg/dL
- GGT [3, 4]: 3 IU/L
- GLOB [3, 4]: 1.7 g/dL and 2.0 g/dL and 1.9 g/dL and 1.6 g/dL
- GLUC [3, 4]: 91 mg/dL and 97 mg/dL and 102 mg/dL and 95 mg/dL and 98 mg/dL and 89 mg/dL
- K [3, 4]: 4.5 mmo/L and 4.9 mmo/L and 4.7 mmo/L and 5.0 mmo/L and 5.2 mmo/L and 4.6 mmo/L
- Na [3, 4]: 149 mmo/L and 147 mmo/L and 148 mmo/L
- TBIL [3, 4]: 0.15 mg/dL
- TP [3, 4]: 5.0 g/dL and 5.1 g/dL and 5.5 g/dL and 5.2 g/dL and 5.3 g/dL
- AGR ([3]; Grp 2 Avg, 3 samplings): 1.8 and 2.2 and 2.1
- ALB ([3]; Grp 2 Avg, 3 samplings): 3.3 g/dL and 3.5 g/dL and 3.6 g/dL
- ALPK ([3]; Grp 2 Avg, 3 samplings): 186 IU/L and 126 IU/L and 116 IU/L
- ALT ([3]; Grp 2 Avg, 3 samplings): 20 IU/L and 26 IU/L and 25 IU/L
- AST ([3]; Grp 2 Avg, 3 samplings): 42 IU/L and 39 IU/L and 37 IU/L
- BUN ([3]; Grp 2 Avg, 3 samplings): 13 mg/dL and 15 mg/dL
- CA2 ([3]; Grp 2 Avg, 3 samplings): 10.9 mg/dL and 10.8 mg/dL
- CHOL ([3]; Grp 2 Avg, 3 samplings): 153 mg/dL and 145 mg/dL and 133 mg/dL
- CREA ([3]; Grp 2 Avg, 3 samplings): 0.7 mg/dL and 0.6 mg/dL
- GGT ([3]; Grp 2 Avg, 3 samplings): 3 IU/L
- GLOB ([3]; Grp 2 Avg, 3 samplings): 1.8 g/dL and 1.7 g/dL
- GLUC ([3]; Grp 2 Avg, 3 samplings): 93 mg/dL and 98 mg/dL and 96 mg/dL
- K ([3]; Grp 2 Avg, 3 samplings): 4.8 mmo/L and 5.1 mmo/L and 4.7 mmo/L
- Na ([3]; Grp 2 Avg, 3 samplings): 149 mmo/L and 147 mmo/L and 148 mmo/L
- TBIL ([3]; Grp 2 Avg, 3 samplings): 0.15 mg/dL
- TP ([3]; Grp 2 Avg, 3 samplings): 5.1 g/dL and 5.2 g/dL and 5.4 g/dL
- TRIG ([3]; Grp 2 Avg, 3 samplings): 52 mg/dL and 60 mg/dL and 47 mg/dL
- AGR [3, 5]: 2.0 and 2.1 and 2.3 and 1.8 and 2.6
- ALB [3, 5]: 3.2 g/dL and 3.4 g/dL and 3.5 g/dL and 3.7 g/dL
- ALPK [3, 5]: 142 IU/L and 135 IU/L and 121 IU/L and 164 IU/L and 90 IU/L and 176 IU/L
- ALT [3, 5]: 26 IU/L and 24 IU/L and 22 IU/L and 28 IU/L and 20 IU/L
- AST [3, 5]: 30 IU/L and 32 IU/L and 33 IU/L and 28 IU/L
- CA2 [3, 5]: 10.7 mg/dL and 10.5 mg/dL and 10.0 mg/dL and 11.2 mg/dL and 10.8 mg/dL and 10.4 mg/dL
- CHOL [3, 5]: 100 mg/dL and 111 mg/dL and 126 mg/dL and 175 mg/dL and 141 mg/dL
- CREA [3, 5]: 0.6 mg/dL and 0.7 mg/dL and 1.0 mg/dL and 0.5 mg/dL and 0.9 mg/dL
- GGT [3, 5]: 3 IU/L
- GLOB [3, 5]: 1.6 g/dL and 1.7 g/dL and 1.5 g/dL and 2.0 g/dL and 1.4 g/dL
- K [3, 5]: 4.7 mmo/L and 5.1 mmo/L and 5.8 mmo/L and 5.5 mmo/L and 5.3 mmo/L and 5.9 mmo/L
- Na [3, 5]: 146 mmo/L and 148 mmo/L and 149 mmo/L and 145 mmo/L
- TBIL [3, 5]: 0.15 mg/dL
- TP [3, 5]: 4.8 g/dL and 5.1 g/dL and 5.0 g/dL and 5.5 g/dL
- AGR ([3]; Grp 3 Avg, 3 samplings): 2.2 and 1.9 and 2.4
- ALB ([3]; Grp 3 Avg, 3 samplings): 3.4 g/dL and 3.5 g/dL and 3.6 g/dL
- ALPK ([3]; Grp 3 Avg, 3 samplings): 153 IU/L and 113 IU/L and 149 IU/L
- ALT ([3]; Grp 3 Avg, 3 samplings): 27 IU/L and 22 IU/L and 21 IU/L
- AST ([3]; Grp 3 Avg, 3 samplings): 30 IU/L and 32 IU/L
- CA2 ([3]; Grp 3 Avg, 3 samplings): 11.0 mg/dL and 10.7 mg/dL and 10.2 mg/dL
- CHOL ([3]; Grp 3 Avg, 3 samplings): 113 mg/dL and 143 mg/dL and 126 mg/dL
- CREA ([3]; Grp 3 Avg, 3 samplings): 0.6 mg/dL and 1.0 mg/dL
- GGT ([3]; Grp 3 Avg, 3 samplings): 3 IU/L
- GLOB ([3]; Grp 3 Avg, 3 samplings): 1.6 g/dL and 1.9 g/dL and 1.5 g/dL
- GLUC ([3]; Grp 3 Avg, 3 samplings): 106 mg/dL and 89 mg/dL and 58 mg/dL
- K ([3]; Grp 3 Avg, 3 samplings): 5.1 mmo/L and 5.2 mmo/L and 5.9 mmo/L
- Na ([3]; Grp 3 Avg, 3 samplings): 148 mmo/L and 146 mmo/L and 149 mmo/L
- TBIL ([3]; Grp 3 Avg, 3 samplings): 0.15 mg/dL
- TP ([3]; Grp 3 Avg, 3 samplings): 4.9 g/dL and 5.3 g/dL and 5.1 g/dL
- TRIG ([3]; Grp 3 Avg, 3 samplings): 30 mg/dL and 39 mg/dL and 55 mg/dL
- AGR [3, 6]: 2.3 and 1.8 and 1.9 and 2.0 and 1.7 and 1.6
- ALB [3, 6]: 3.6 g/dL and 3.4 g/dL and 3.2 g/dL and 3.3 g/dL and 3.5 g/dL
- ALPK [3, 6]: 103 IU/L and 114 IU/L and 119 IU/L and 93 IU/L and 95 IU/L and 147 IU/L and 146 IU/L and 129 IU/L
- ALT [3, 6]: 27 IU/L and 28 IU/L and 25 IU/L and 24 IU/L and 20 IU/L and 21 IU/L and 40 IU/L and 23 IU/L
- AST [3, 6]: 32 IU/L and 39 IU/L and 34 IU/L and 33 IU/L and 38 IU/L and 31 IU/L and 35 IU/L and 30 IU/L
- BUN [3, 6]: 11 mg/dL and 12 mg/dL and 13 mg/dL and 16 mg/dL and 15 mg/dL
- CA2 [3, 6]: 10.8 mg/dL and 10.6 mg/dL and 10.4 mg/dL and 11.1 mg/dL and 11.2 mg/dL and 11.0 mg/dL
- CREA [3, 6]: 0.7 mg/dL and 0.6 mg/dL and 0.5 mg/dL
- GGT [3, 6]: 3 IU/L
- GLOB [3, 6]: 1.6 g/dL and 1.9 g/dL and 1.7 g/dL and 2.1 g/dL and 2.0 g/dL
- K [3, 6]: 4.7 mmo/L and 4.8 mmo/L and 4.6 mmo/L and 5.1 mmo/L and 4.3 mmo/L and 5.3 mmo/L and 4.9 mmo/L
- Na [3, 6]: 152 mmo/L and 147 mmo/L and 145 mmo/L and 153 mmo/L and 148 mmo/L and 146 mmo/L and 149 mmo/L
- TBIL [3, 6]: 0.15 mg/dL
- TP [3, 6]: 5.2 g/dL and 5.3 g/dL and 4.9 g/dL and 5.1 g/dL and 5.0 g/dL and 5.6 g/dL and 5.5 g/dL and 5.4 g/dL
- TRIG [3, 6]: 49 mg/dL and 46 mg/dL and 40 mg/dL and 53 mg/dL and 44 mg/dL and 34 mg/dL and 41 mg/dL and 55 mg/dL
- AGR [3, 7]: 2.2 and 1.8 and 1.9
- ALB [3, 7]: 3.5 g/dL and 3.4 g/dL and 3.3 g/dL
- ALPK [3, 7]: 103 IU/L and 104 IU/L and 107 IU/L
- ALT [3, 7]: 28 IU/L and 26 IU/L
- AST [3, 7]: 33 IU/L and 39 IU/L
- BUN [3, 7]: 12 mg/dL and 13 mg/dL
- CA2 [3, 7]: 10.8 mg/dL and 10.7 mg/dL and 10.5 mg/dL
- CHOL [3, 7]: 139 mg/dL and 136 mg/dL and 112 mg/dL
- CREA [3, 7]: 0.7 mg/dL and 0.6 mg/dL
- GGT [3, 7]: 3 IU/L
- GLOB [3, 7]: 1.7 g/dL and 1.9 g/dL
- GLUC [3, 7]: 102 mg/dL and 76 mg/dL and 91 mg/dL
- K [3, 7]: 4.7 mmo/L and 5.0 mmo/L and 4.5 mmo/L
- Na [3, 7]: 153 mmo/L and 148 mmo/L and 146 mmo/L
- TBIL [3, 7]: 0.15 mg/dL
- TP [3, 7]: 5.2 g/dL and 5.3 g/dL and 5.0 g/dL
- TRIG [3, 7]: 51 mg/dL and 48 mg/dL and 42 mg/dL
